Data on 30 compounds can be found in patent publication US20250051347A1, “BIFUNCTIONAL CHIMERIC HETEROCYCLIC COMPOUND AND USE THEREOF AS ANDROGEN RECEPTOR DEGRADER” (Hinova Pharmaceuticals, Inc., priority 2021, published 2025).

For the first assay, the target named is T1, androgen receptor (AR) splicing variant AR-v7 (Homo sapiens, UniProt P10275).
T1 construct: The degradation activity of compounds on AR-v7 in 22RV1 cells; host or cells: 22RV1 cells
T1 sequence (P10275 1-644 isoform P10275-3): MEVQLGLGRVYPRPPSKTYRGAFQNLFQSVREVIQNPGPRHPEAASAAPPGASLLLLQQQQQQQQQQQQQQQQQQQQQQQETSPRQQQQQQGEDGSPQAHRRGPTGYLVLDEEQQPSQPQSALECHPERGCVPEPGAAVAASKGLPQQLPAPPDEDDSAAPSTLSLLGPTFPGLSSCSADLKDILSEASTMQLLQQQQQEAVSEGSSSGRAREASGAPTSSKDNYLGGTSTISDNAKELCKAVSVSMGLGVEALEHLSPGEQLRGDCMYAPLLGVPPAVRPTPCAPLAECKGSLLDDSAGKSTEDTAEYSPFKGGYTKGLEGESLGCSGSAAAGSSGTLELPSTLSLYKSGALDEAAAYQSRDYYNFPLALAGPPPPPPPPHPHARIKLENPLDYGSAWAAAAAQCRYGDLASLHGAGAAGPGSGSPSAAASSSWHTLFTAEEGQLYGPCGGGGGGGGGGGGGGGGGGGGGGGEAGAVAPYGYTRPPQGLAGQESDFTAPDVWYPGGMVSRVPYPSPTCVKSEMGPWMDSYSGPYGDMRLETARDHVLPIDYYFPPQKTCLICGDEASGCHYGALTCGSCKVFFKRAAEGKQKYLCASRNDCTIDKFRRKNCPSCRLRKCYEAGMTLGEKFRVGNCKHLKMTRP
Kind of assay: Degradation activity on androgen receptor splicing variant AR-v7 in 22RV1 cells (ELISA). Format: cell-based. The settings on record: AR-v7 degradation in 22RV1 cells, 48 h, class symbols. (An ELISA detects its analyte on a solid surface through an enzyme-linked reagent.)
As usually defined, the DC50 is the midpoint of the concentration-degradation curve. The compound `CC(C)(c1ccc(Oc2ccc(-n3ccnn3)nn2)cc1)c1ccc(O[C@H]2C[C@H](Nc3ccc4c(c3)C(=O)N(C3CCC(=O)NC3=O)C4=O)C2)cc1` (stereo partly drawn) [Example 325] returned a DC50 of 11 to 100 nM.

Regarding `Cc1nc(-c2ncc(Oc3ccc(C(C)(C)c4ccc(O[C@H]5C[C@H](Nc6cc7c(cc6F)C(=O)N(C6CCC(=O)NC6=O)C7=O)C5)cc4)cc3)cn2)no1` (stereo partly drawn) [Example 102], the half-maximal degradation concentration (DC50) was in the range of 11 to 100 nM.

In the case of `CCC(CC)(c1ccc(OCCCCCCCCOCCCCNc2ccc3c(c2)C(=O)N(C2CCC(=O)NC2=O)C3=O)cc1)c1ccc(OCc2ccnc(NS(C)(=O)=O)n2)cc1` (stereo not drawn) [Example 57, N-(4-((4-(3-(4-((8-(4-((2-(2,6-dioxopiperidin-3-yl)-1,3-dioxoisoindolin-5-yl)amino)butoxy)octyl)oxy)phenyl)pentan-3-yl)phenoxy)methyl)pyrimidin-2-yl)methanesulfonamide], the DC50 fell in the range of 101 to 1000 nM.

Take `CC(C)(c1ccc(Oc2cc(-n3nccn3)ccn2)cc1)c1ccc(O[C@H]2C[C@H](Nc3ccc4c(c3)C(=O)N(C3CCC(=O)NC3=O)C4=O)C2)cc1` (stereo partly drawn) [Example 165, 5-(((1r,3r)-3-(4-(2-((4-(2H-1,2,3-triazol-2-yl)pyridin-2-yl)oxy)phenyl)propan-2-ylphenoxy)cyclobutyl)amino)-2-(2,6-dioxopyridin-3-yl)isoindol-1,3-dione]: the DC50 fell in the range of 11 to 100 nM.

`CC(C)(c1ccc(OCCCNc2cccc3c2C(=O)N(C2CCC(=O)NC2=O)C3=O)cc1)c1ccc(OCc2ccnc(N3CCOCC3)n2)cc1` (stereo not drawn) [Example 59]: the DC50 lay within 11 to 100 nM. `Cc1nc(-c2ncc(Oc3ccc(C(C)(C)c4ccc(OC5CC(Nc6cc7c(cn6)C(=O)N(C6CCC(=O)NC6=O)C7=O)C5)cc4)cc3)cn2)no1` (stereo not drawn) [Example 530, 2-(2,6-dioxopiperidin-3-yl)-6-((1r,3r)-3-(4-(2-(4-((2-(5-methyl-1,2,4-oxadiazol-3-yl)pyrimidin-5-yl)oxy)phenyl)propan-2-yl)phenoxy)cyclobutyl)amino)-1H-pyrrolo[3,4-c]pyridin-1,3(2H)-dione] yielded a DC50 of 101 to 1000 nM.

For `Cc1nc(-c2cnc(Oc3ccc(C(C)(C)c4ccc(O[C@H]5C[C@H](Nc6ccc7c(c6)C(=O)N(C6CCC(=O)NC6=O)C7=O)C5)cc4)cc3)cn2)no1` (stereo partly drawn) [Example 586], the DC50 was in the range of 11 to 100 nM. The compound `Cc1nc(-c2ccc(Oc3ccc(C(C)(C)c4ccc(O[C@H]5C[C@@H](Nc6ccc7c(c6)C(=O)N(C6CCC(=O)NC6=O)C7=O)C5)cc4)cc3)nn2)no1` (stereo partly drawn) [Example 337] gave a DC50 of 11 to 100 nM. `CC(C)(c1ccc(Oc2ccnc(-n3ccnn3)c2)cc1)c1ccc(O[C@H]2C[C@H](Nc3ccc4c(c3)C(=O)N(C3CCC(=O)NC3=O)C4=O)C2)cc1` (stereo partly drawn) [Example 163, 5-((1r,3r)-3-(4-(2-(2-(4-((1H-1,2,3-triazol-2-yl)pyridin-4-yl)oxy)phenyl)propan-2-ylphenoxy)cyclobutyl)amino)-2-(2,6-dioxopiperidin-3-yl)isoindolin-1,3-dione]: the DC50 was in the range of 11 to 100 nM. On the same count and under the same terms, as for `CC(C)(c1ccc(OCCCOCCCNc2cccc3c2C(=O)N(C2CCC(=O)NC2=O)C3=O)cc1)c1ccc(OCc2ccnc(NS(C)(=O)=O)n2)cc1` (stereo not drawn) [Example 17], the figure is 1000 to 5000 nM; as for `CN(C)[C@@H]1CCCN(c2nccc(COc3ccc(C(C)(C)c4ccc(O[C@H]5C[C@@H](Nc6ccc7c(c6)C(=O)N(C6CCC(=O)NC6=O)C7=O)C5)cc4)cc3)n2)C1` (stereo partly drawn) [Example 402], 11 to 100 nM; as for `CC(C)(c1ccc(OCc2ccnc(N3CC4CNCC4C3)n2)cc1)c1ccc(OC2CC(Nc3ccc4c(c3)C(=O)N(C3CCC(=O)NC3=O)C4=O)C2)cc1` (stereo not drawn) [Example 80], 11 to 100 nM. The same measure, in the same setting: as for `CC(=O)c1ncc(Oc2ccc(C(C)(C)c3ccc(OC[C@@H]4CCN4c4ccc5c(c4)C(=O)N(C4CCC(=O)NC4=O)C5=O)cc3)cc2)cn1` (stereo partly drawn) [Example 341, 5-((S)-2-((4-(2-(4-((2-acetylpyrimidin-5-yl)oxy)phenyl)propan-2-yl)phenoxy)methyl)azetidin-1-yl)-2-(2,6-dioxopiperidin-3-yl)isoindolin-1,3-dione], the figure is 11 to 100 nM; as for `CC(O)c1ccc(Oc2ccc(C(C)(C)c3ccc(O[C@H]4C[C@@H](Nc5ccc6c(c5)C(=O)N(C5CCC(=O)NC5=O)C6=O)C4)cc3)cc2)cn1` (stereo partly drawn) [Example 524], 11 to 100 nM. Consider `CC(C)(c1ccc(OCCCNc2ccc3c(c2)C(=O)N(C2CCC(=O)NC2=O)C3=O)cc1)c1ccc(OCc2ccnc(-n3cccn3)n2)cc1` (stereo not drawn) [Example 387, 5-((3-(4-(2-(4-((2-(1H-pyrazol-1-yl)pyrimidin-4-yl)methoxy)phenyl)propan-2-yl)phenoxy)propyl)amino)-2-(2,6-dioxopiperidin-3-yl)isoindol-1,3-dione], for which the DC50 lay in the range of 11 to 100 nM. Same read-out and setting: in the case of `CC(=O)c1nccc(COc2ccc(C(C)(C)c3ccc(OC4CC5(CCN(c6ccc7c(c6)C(=O)N(C6CCC(=O)NC6=O)C7=O)C5)C4)cc3)cc2)n1` (stereo not drawn) [Example 562] it was 1000 to 5000 nM. Compound `Cc1nc(-c2ccnc(Oc3ccc(C(C)(C)c4ccc(O[C@H]5C[C@@H](Nc6ccc7c(c6)C(=O)N(C6CCC(=O)NC6=O)C7=O)C5)cc4)cc3)c2)no1` (stereo partly drawn) [Example 481] had a DC50 of 11 to 100 nM.

In turn, `CC(C)(c1ccc(OCc2ccnc(NS(C)(=O)=O)n2)cc1)c1ccc(OC2CN(c3cccc4c3C(=O)N(C3CCC(=O)NC3=O)C4=O)C2)cc1` (stereo not drawn) [Example 47, N-(4-((4-(2-(4-((1-(2-(2,6-dioxopiperidin-3-yl)-1,3-dioxoisoindolin-4-yl)azetidin-3-yl)oxy)phenyl)propan-2-yl)phenoxy)methyl)pyrimidin-2-yl)methanesulfonamide] displayed a DC50 of 101 to 1000 nM. For the compound `CC(=O)c1nccc(COc2ccc(C(C)(C)c3ccc(OC4CCN(c5ccc6c(c5)C(=O)N(C5CCC(=O)NC5=O)C6=O)C4)cc3)cc2)n1` (stereo not drawn) [Example 486], the DC50 is 101 to 1000 nM. For the compound `Cc1nc(-c2cccc(COc3ccc(C(C)(C)c4ccc(O[C@H]5C[C@H](Nc6ccc7c(c6)C(=O)N(C6CCC(=O)NC6=O)C7=O)C5)cc4)cc3)n2)no1` (stereo partly drawn) [Example 283], the DC50 was 11 to 100 nM. The same measure, in the same setting: as for `CC(C)(c1ccc(OCc2ccnc(N3CC4(COC4)C3)n2)cc1)c1ccc(C(=O)N2CC(Nc3ccc4c(c3)C(=O)N(C3CCC(=O)NC3=O)C4=O)C2)cc1` (stereo not drawn) [Example 503], the figure is 11 to 100 nM. In the case of `CC(C)(c1ccc(OCCCCCCCCOCCCCNc2ccc3c(c2)C(=O)N(C2CCC(=O)NC2=O)C3=O)cc1)c1ccc(OCc2cnc(NS(C)(=O)=O)nc2)cc1` (stereo not drawn) [Example 51], the DC50 was in the range of 101 to 1000 nM. The same measure, in the same setting: as for `CC(C)(c1ccc(OCc2ccnc(N3CC4(COC4)C3)n2)cc1)c1ccc(OCC2(CNc3ccc4c(c3)C(=O)N(C3CCC(=O)NC3=O)C4=O)CC2)cc1` (stereo not drawn) [Example 495], the figure is 101 to 1000 nM. Same read-out and setting: as for `C[C@@H]1CN(C)[C@@H](C)CN1c1nccc(COc2ccc(C(C)(C)c3ccc(O[C@H]4C[C@@H](Nc5ccc6c(c5)C(=O)N(C5CCC(=O)NC5=O)C6=O)C4)cc3)cc2)n1` (stereo partly drawn) [Example 412], the figure is 11 to 100 nM; as for `CC(O)c1nccc(COc2ccc(C(C)(C)c3ccc(OCCCNc4cccc5c4C(=O)N(C4CCC(=O)NC4=O)C5=O)cc3)cc2)n1` (stereo not drawn) [Example 346, 2-(2,6-dioxopiperidin-3-yl)-4-((3-(4-(2-(4-((2-(1-hydroxylethyl)pyrimidin-4-yl)methoxy)phenyl)isopropan-2-yl)phenoxy)propyl)amino)isoindolin-1,3-dione], 1000 to 5000 nM. Compound `CC(C)(c1ccc(Oc2cnc(N)nn2)cc1)c1ccc(O[C@H]2C[C@H](Nc3ccc4c(c3)C(=O)N(C3CCC(=O)NC3=O)C4=O)C2)cc1` (stereo partly drawn) [Example 215] gave a DC50 of 11 to 100 nM.

The assay is the same for the next values; noted with them: AR-v7 degradation in 22RV1 cells, 48 h, numeric values.
The compound `CC(=O)c1nccc(COc2ccc(C(C)(C)c3ccc(OCC4CCCN(c5ccc6c(c5)C(=O)N(C5CCC(=O)NC5=O)C6=O)C4)cc3)cc2)n1` (stereo not drawn) [Example 304, 5-(3-((4-(2-(4-((2-acetylpyrimidin-4-yl)methoxy)phenyl)propan-2-yl)phenoxy)methyl)piperidin-1-yl)-2-(2,6-dioxopiperidin-3-yl)isoindolin-1,3-dione] yielded a DC50 greater than 2500 nM. As to `CC(C)(c1ccc(OCc2ccnc(NS(C)(=O)=O)n2)cc1)c1ccc(OC2CN(c3ccc4c(c3)C(=O)N(C3CCC(=O)NC3=O)C4=O)C2)cc1` (stereo not drawn) [Example 46, N-(4-((4-(2-(4-((1-(2-(2,6-dioxopiperidin-3-yl)-1,3-dioxoisoindolin-5-yl)azetidin-3-yl)oxy)phenyl)propan-2-yl)phenoxy)methyl)pyrimidin-2-yl)methanesulfonamide], the DC50 was greater than 5000 nM. In turn, `CC(C)(c1ccc(OCc2ccnc(NS(C)(=O)=O)n2)cc1)c1ccc(OC2CCN(CCCCOCCCCNc3ccc4c(c3)C(=O)N(C3CCC(=O)NC3=O)C4=O)CC2)cc1` (stereo not drawn) [Example 36, N-(4-((4-(2-(4-((1-(4-(4-(4-)((2-(2,6-dioxopiperidin-3-yl)-1,3-dioxoisoindolin-5-yl)amino)butoxy)butyl)piperidin-4-yl)oxy)phenyl)propan-2-yl)phenoxy)methyl)pyrimidin-2-yl)methanesulfonamide] returned a DC50 greater than 10000 nM. Same read-out and setting: in the case of `CC(C)(c1ccc(OCCCCCNc2ccc3c(c2)C(=O)N(C2CCC(=O)NC2=O)C3=O)cc1)c1ccc(OCc2ccnc(NS(C)(=O)=O)n2)cc1` (stereo not drawn) [Example 38, N-(4-((4-(2-(4-((5-((2-(2,6-dioxopiperidin-3-yl)-1,3-dioxoisoindolin-5-yl)amino)pentyl)oxy)phenyl)propan-2-yl)phenoxy)methyl)pyrimidin-2-yl)methanesulfonamide] it was greater than 5000 nM.
